pIC50: −log10 of the molar value. Where “and” joins values, the source holds several entries; their conditions need not be identical. Identical values can stand only once. Like-named read-outs stand apart in the source and are kept apart here.
What was measured:
PvNMT = PvNMT (Plasmodium vivax, UniProt A5K1A2); assay: NMT activity assay (CPM detection of free CoA), PvNMT; conditions: for SI: enzyme selectivity, HsNMT IC50/PvNMT IC50
HepG2 cells = assay: HepG2 cytotoxicity assay (Live/Dead staining); conditions: for Percentage of live HepG2 cells compared with diluent controls: replicates
Protocol: Therefore, we assessed cytotoxicity in the human hepatoma HepG2 cell line. We required a PvNMT to HsNMT SI > 20 for further screening. HepG2 cells were exposed to the compounds at concentrations ranging from 1 to 20 µM for […], and toxicity was assessed via live-dead staining.
The viability of the HepG2 cell line following exposure to the compounds was determined by a Live/Dead cell assay kit (Invitrogen). Briefly, cells were added to a 96-well plate at a concentration of 5000 cells per well, excluding the exterior wells. Cells were exposed to the compounds at different concentrations ranging from 1 to 20 µM. Cells were washed every 24 h and supplemented with fresh doses of compounds. At 72 h post-treatment, 1 µM calcein-AM and 1 µM ethidium homodimer were added to the wells and incubated for 10 min at 37 °C. After washing with PBS, the cells were visualized with fluorescent microscopy (Keyence BZ-X700).

HsNMT1 = molecular target: T1, HsNMT1 (Homo sapiens, UniProt P30419); assay: NMT activity assay (CPM detection of free CoA), HsNMT
T1 sequence (P30419 1-496): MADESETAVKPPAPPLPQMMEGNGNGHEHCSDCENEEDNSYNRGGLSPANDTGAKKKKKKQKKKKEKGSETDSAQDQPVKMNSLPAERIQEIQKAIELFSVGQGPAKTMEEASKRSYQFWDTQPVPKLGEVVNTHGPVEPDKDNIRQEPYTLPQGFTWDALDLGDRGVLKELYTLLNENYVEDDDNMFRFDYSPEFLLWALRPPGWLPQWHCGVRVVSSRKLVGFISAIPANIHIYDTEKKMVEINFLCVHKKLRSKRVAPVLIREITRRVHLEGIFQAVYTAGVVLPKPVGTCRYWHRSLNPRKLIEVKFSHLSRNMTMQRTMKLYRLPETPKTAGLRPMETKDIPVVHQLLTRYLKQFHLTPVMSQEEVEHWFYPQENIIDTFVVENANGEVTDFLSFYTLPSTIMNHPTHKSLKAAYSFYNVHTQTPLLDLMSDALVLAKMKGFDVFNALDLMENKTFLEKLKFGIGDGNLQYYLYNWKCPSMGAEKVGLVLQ

P. vivax schizonts = assay: P. vivax liver stage assay, schizonts; format: cell-based, Plasmodium vivax; conditions: 20 µM; for Number of liverstage Schizonts per well: 8 dpi, listed as Pi4K
Protocol: We next evaluated the candidate compounds against liver-stage P. vivax (Fig. 5). P. vivax sporozoites were obtained from three independent patient isolates and cultured in primary human hepatocytes from a single donor lot using a 384-well microculture system as described previously. Cells were infected and treated with NMTis at 20 µM beginning day 5 post-infection until day 8 when the infection rates were quantified by fluorescent microscopy.
Accordingly, we applied dose–response curves of all the tested NMTs on parasite isolates 2 and 3 over concentrations up to 20 µM (Fig. 5c, d, Source Data file). We observed similar kinetics for all inhibitors, with a gradual decrease in parasite load upon increasing the drug concentration. […] Nuclei were counted in each well using DAPI staining as a measure of toxicity (Supplementary Fig. 86, Supplementary Source data). We used the phosphatidylinositol 4-kinase inhibitor (PI4Ki), MMV390048, as a positive control for eliminating schizonts[37],[38].
Plasmodium vivax liver stage assays were performed as described previously. Cryopreserved primary human hepatocytes (Cat No. F00995-P) and hepatocyte culture medium (HCM) (InVitroGroTM CP Medium) were obtained from Bioreclamation IVT, Inc., (Baltimore, MD, USA). Briefly, we seeded 384-well plates with primary hepatocytes from a single donor lot at a density of 25,000 cells per well. We then infected the hepatocytes with 14,000 freshly hand-dissected sporozoites per well. Cells were exposed to the compounds at indicated concentrations from day 5 post-infection. We used Pi4K inhibitor MMV390048, at 20 µM, as a positive control to eliminate P. vivax liver schizonts. We then proceeded to feed cultures every day, replacing the compounds until day 8 post-infection. Cells were fixed with 4% PFA, permeabilized with 1% Triton X-100, blocked with 2% BSA, and stained with DAPI and PvUIS4 antibodies to detect schizonts and hypnozoites forms by confocal microscopy. For antibody dilutions, PvUIS4 (kind gift from Dr. Noah Sather, Seattle Children’s Research Institute) was diluted 1:250 and the secondary antibody was anti-mouse AlexaFluor-594 (Cat # A-11005; RRID: AB_2534073) diluted 1:1000. DAPI was diluted 1:2000. The images were processed, analyzed and outlier cells were removed using IMARIS (Bitplane Inc.) image analysis software.

[1] = PvNMT IC50, mean of two or more determinations
[2] = read-out: PvNMT IC50, mean of two or more determinations
[3] = read-out: HsNMT IC50, mean of two or more determinations

Chain of PvNMT (A5K1A2 entry or part of it): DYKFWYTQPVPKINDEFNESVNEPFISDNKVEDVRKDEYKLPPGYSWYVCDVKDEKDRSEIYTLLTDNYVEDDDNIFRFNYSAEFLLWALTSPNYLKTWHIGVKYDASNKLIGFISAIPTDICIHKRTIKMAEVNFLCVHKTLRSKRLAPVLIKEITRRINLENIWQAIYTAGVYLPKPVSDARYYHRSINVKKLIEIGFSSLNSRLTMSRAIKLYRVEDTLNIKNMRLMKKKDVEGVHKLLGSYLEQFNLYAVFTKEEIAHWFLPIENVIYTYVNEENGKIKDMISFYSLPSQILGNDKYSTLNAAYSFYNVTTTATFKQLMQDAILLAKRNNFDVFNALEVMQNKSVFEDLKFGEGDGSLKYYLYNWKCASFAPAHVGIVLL

With `Cc1n[nH]c(C)c1CCOc1ccc2ccccc2c1-c1cccc(OCCN(C)C)c1` [Compound 30f] the pIC50 (PvNMT; [1]) was 4.60.

Work on `Cc1n[nH]c(C)c1CCOc1ccccc1-c1cc(N2CCNCC2)ncn1` [Compound 16f] yielded a pIC50 (PvNMT; [1]) of 4.85.

`Cc1n[nH]c(C)c1CCOc1cc(F)ccc1-c1cc(N2CCNCC2)ncn1` [Compound 16e] showed a pIC50 (PvNMT; [2]) of 5.29.

Molecule `c1cncc(CCOc2cccnc2-c2ccnc(N3CCNCC3)c2)c1` [Compound 12h] has a pIC50 (PvNMT; [1]) of 6.36.

With `CN[C@@H]1C[C@H]2O[C@@](C)([C@@H]1OC)n1c3ccccc3c3c4c(c5c6ccccc6n2c5c31)C(=O)NC4` [staurosporine, Staurosporine, reference compound] the “Percentage of live HepG2 cells compared with diluent controls” value (“Percentage of live HepG2 cells” below) (HepG2 cells; 1 μM) was 95.8547% and 101.587%, the “Percentage of live HepG2 cells” value (HepG2 cells; 2.5 μM) was 98.2188% and 92.7655% and the “Percentage of live HepG2 cells” value (HepG2 cells; 5 μM) was 90.1576% and 84.8522%. For the same molecule, the “Percentage of live HepG2 cells” value (HepG2 cells; 10 μM) was 76.1985% and 71.2598%, the “Percentage of live HepG2 cells” value (HepG2 cells; 20 μM) was 50.831% and 59.1843% and the “HepG2 cell viability (in words)” value (HepG2 cells; at 10–20 µM, positive control) was “reduced the cell viability”.

With `CN(C)CCOc1cccc(-c2ccc(F)cc2OCCc2cccnc2)c1` [Compound 26f] the pIC50 (PvNMT; [2]) was 6.21 and the pIC50 (HsNMT1; [3]) was under 4.40.

With `Cc1nn(C)c(C)c1CCOc1ccccc1-c1cc(N2CCNCC2)ncn1` [Compound 16a] the pIC50 (PvNMT; [1]) was 5.03.

`CN(C)CCOc1cccc(-c2ncccc2OCCc2cccnc2)c1` [Compound 26d] gave a pIC50 (PvNMT; [1]) of 4.83.

Molecule `Cc1n[nH]c(C)c1CCOc1cccnc1-c1cccc(OCCN(C)C)c1` [Compound 26g] has a pIC50 (PvNMT; [1]) of 4.71.

`Cc1nn(C)c(C)c1CCOc1cccnc1-c1cccc(OCCN(C)C)c1` [Compound 26a] showed a pIC50 (PvNMT; [1]) of 6.58.

Work on `Cc1n[nH]c(C)c1CCOc1cc(F)ccc1-c1cccc(N2CCNCC2)c1` [Compound 12p] yielded a pIC50 (PvNMT; [1]) of 6.43, an SI (PvNMT) of 62.7 and a pIC50 (HsNMT1) of 4.64.

With `CS(=O)(=O)c1ccc(-c2cnc(N)c(-c3ccc(C(F)(F)F)nc3)c2)cc1` [MMV390048, reference compound] the “Number of liverstage Schizonts per well” value (P. vivax schizonts; isolate 2, technical replicates (Fig. 5b)) was 0 per well and 1 per well (2×), the “Number of liverstage Schizonts per well” value (P. vivax schizonts; isolate 3, technical replicates (Fig. 5b)) was 2 per well and 1 per well and the “number of schizonts per well (in words)” value (P. vivax schizonts; positive control) was “dramatically reduced the number of schizonts per well”.

`Cc1n[nH]c(C)c1CCOc1ccc2ccccc2c1-c1ccnc(N2CCNCC2)c1` [Compound 30e] showed a pIC50 (PvNMT; [1]) of 5.54.

`CN(C)CCOc1cccc(-c2c(OCCc3cccnc3)ccc3ccccc23)c1` [Compound 30d] showed a pIC50 (PvNMT; [1]) of 5.14.

`CN(C)CCOc1cccc(-c2ccccc2OCCc2cccnc2)c1` [Compound 26e] showed a pIC50 (PvNMT; [1]) of 4.89.

`Cc1n[nH]c(C)c1CCOc1ccccc1-c1ccnc(N2CCNCC2)c1` [Compound 12n] showed a pIC50 (PvNMT; [1]) of 6.22, an SI (PvNMT) of 65.7 and a pIC50 (HsNMT1) of 4.40.

`Cc1n[nH]c(C)c1CCOc1cccnc1-c1cccc(N2CCNCC2)c1` [Compound 12m] gave a pIC50 (PvNMT; [1]) of 4.90.

Molecule `Cc1nn(C)c(C)c1CCOc1ccc2ccccc2c1-c1cccc(OCCN(C)C)c1` [Compound 30b] has a pIC50 (PvNMT; [1]) of 4.70.

`Cc1nn(C)c(C)c1CCOc1ccccc1-c1ccnc(N2CCNCC2)c1` [Compound 12c] gave a pIC50 (PvNMT; [1]) of 8.02, an SI (PvNMT) of 63.1 and a pIC50 (HsNMT1) of 6.22.

In the case of `c1cncc(CCOc2ccccc2-c2cccc(N3CCNCC3)c2)c1` [Compound 12i], the pIC50 (PvNMT; [1]) was 5.81.

Work on `Fc1ccc(-c2cc(N3CCNCC3)ncn2)c(OCCc2cccnc2)c1` [Compound 16d] yielded a pIC50 (PvNMT; [1]) of 5.47.

For `Cc1nn(C)c(C)c1CCOc1cc(F)ccc1-c1cc(N2CCNCC2)ncn1` [Compound 16b], the SI (PvNMT) was 164 and 164.4, the pIC50 (PvNMT; [2]) was 6.77 and the pIC50 (HsNMT1; [3]) was 4.56.

With `Fc1ccc(-c2cccc(N3CCNCC3)c2)c(OCCc2cccnc2)c1` [Compound 12k] the pIC50 (PvNMT; [1]) was 5.51.

`Cc1n[nH]c(C)c1CCOc1cccnc1-c1ccnc(N2CCNCC2)c1` [Compound 12o] gave a pIC50 (PvNMT; [2]) of 5.51.

`Cc1n[nH]c(C)c1CCOc1ccccc1-c1cccc(OCCN(C)C)c1` [Compound 26h] gave a pIC50 (PvNMT; [1]) of 5.81.
